In general, IC50 refers to the concentration at which inhibition is half-maximal. A high value points to weaker potency.

The target in this test is Human CD38 (Homo sapiens (Human), UniProt P28907). In words: CD38 enzyme assay. It counts as biochemical. The following applies: 2 nM CD38, NAD+ substrate, absorbance at 405 nm. From the text: [formula] where SUBcmpd is the subtracted value for the individual compound treated well, SUBmin is the average of the subtracted values of the 4-(((1r,4r)-4-(2-methoxyethoxy)cyclohexyl)amino)-1-methyl-6-(thiazol-5-yl)quinolin-2(1H)-one positive control wells and SUBmax is the average of the subtracted values of the DMSO negative control wells.
Human CD38, sequence (P28907 whole entry): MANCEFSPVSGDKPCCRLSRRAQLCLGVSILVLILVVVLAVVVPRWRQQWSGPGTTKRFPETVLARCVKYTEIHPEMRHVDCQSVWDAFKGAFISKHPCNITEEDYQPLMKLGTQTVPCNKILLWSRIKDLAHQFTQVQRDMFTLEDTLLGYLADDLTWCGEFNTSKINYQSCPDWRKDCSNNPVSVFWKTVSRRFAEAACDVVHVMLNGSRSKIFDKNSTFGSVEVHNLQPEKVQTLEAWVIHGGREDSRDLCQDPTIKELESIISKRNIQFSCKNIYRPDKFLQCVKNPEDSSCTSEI
The % inhibition values were plotted as a function of compound concentration and the following 4-parameter fit was applied to derive the IC50 values:
[formula] where top and bottom are normally allowed to float, but may be fixed at 100 or 0 respectively in a 3-parameter fit. The Hill Coefficient is normally allowed to float but may also be fixed at 1 in a 3-parameter fit. Y is the % inhibition and X is the compound concentration.
`O=C(N[C@H]1CCCOC1)c1nc(-n2ccnc2)nc2cc[nH]c12` (single isomer, unassigned) [Example 28a] showed a 50% inhibitory concentration (IC50) of 10 to 100 nM. Consider `O=C(N[C@@H]1CCCOC1)c1nc(-n2ccnc2)nc2cc[nH]c12` (single isomer, unassigned) [Example 28b], for which the IC50 was less than 10 nM. As for `CC(C)[C@@H](O)CO[C@H]1CC[C@H](NC(=O)c2nc(-n3ccnc3)nc3cc[nH]c23)CC1` (single isomer, unassigned) [Example 119a], the figure is 10 to 100 nM; as for `CC(C)[C@H](O)CO[C@H]1CC[C@H](NC(=O)c2nc(-n3ccnc3)nc3cc[nH]c23)CC1` (single isomer, unassigned) [Example 119b], 10 to 100 nM; as for `C[C@@H](O)CO[C@H]1CC[C@H](NC(=O)c2nc(-n3ccnc3)nc3cc[nH]c23)CC1` (single isomer, unassigned) [Example 125a], 10 to 100 nM.

Turning to `CC(C)[C@@](C)(O)CO[C@H]1CC[C@H](NC(=O)c2nc(-n3ccnc3)nc3cc[nH]c23)CC1` (single isomer, unassigned) [Example 126a], the IC50 was in the range of 10 to 100 nM. As for `C[C@@](O)(C(=O)N[C@H]1CC[C@H](NC(=O)c2nc(-n3ccnc3)nc3cc[nH]c23)CC1)C(F)(F)F` (single isomer, unassigned) [Example 127a], the figure is 10 to 100 nM; as for `C[C@H](O)CO[C@H]1CC[C@H](NC(=O)c2nc(-n3ccnc3)cc3cn[nH]c23)CC1` (single isomer, unassigned) [Example 207], 10 to 100 nM; as for `C[C@@H](O)CO[C@H]1CC[C@H](NC(=O)c2nc(-n3ccnc3)cc3cn[nH]c23)CC1` (single isomer, unassigned) [Example 208], 10 to 100 nM. As for `C[C@@H](O)[C@H]1CC[C@H](NC(=O)c2nc(-n3ccnc3)nc3ccsc23)CC1` (single isomer, unassigned) [Example 267a], the figure is less than 10 nM; as for `C[C@H](O)[C@H]1CC[C@H](NC(=O)c2nc(-n3ccnc3)nc3ccsc23)CC1` (single isomer, unassigned) [Example 267b], 10 to 100 nM; as for `COCCO[C@H]1CC[C@H](NC(=O)c2cc(-n3ccnc3)cc3nc[nH]c23)CC1` [Example 1, 5-(1H-Imidazol-1-yl)-N-((1r,4r)-4-(2-methoxyethoxy)cyclohexyl)-1H-benzo[d]imidazole-7-carboxamide], 100 to 1000 nM.

Compound `O=C(NCc1c(F)cccc1C(F)(F)F)c1cc(-n2ccnc2)cc2nc[nH]c12` [Example 2, N-(2-Fluoro-6-(trifluoromethyl)benzyl)-5-(1H-imidazol-1-yl)-1H-benzo[d]imidazole-7-carboxamide] had a half-maximal inhibitory concentration (IC50) greater than 1000 nM. As for `O=C(NCc1c(F)cccc1C(F)(F)F)c1cc(-c2cncs2)cc2nc[nH]c12` [Example 3, N-[[2-Fluoro-6-(trifluoromethyl)phenyl]methyl]-6-thiazol-5-yl-3H-benzimidazole-4-carboxamide], the figure is 100 to 1000 nM; as for `COCCO[C@H]1CC[C@H](NC(=O)c2cc(-c3cncs3)cc3nc[nH]c23)CC1` [Example 4, N-((1r,4r)-4-(2-Methoxyethoxy)cyclohexyl)-5-(thiazol-5-yl)-1H-benzo[d]imidazole-7-carboxamide], 100 to 1000 nM. The result for `O=C(NCc1c(F)cccc1C(F)(F)F)c1cc(-n2ccnc2)cc2cc[nH]c12` [Example 5, N-(2-Fluoro-6-(trifluoromethyl)benzyl)-5-(1H-imidazol-1-yl)-1H-indole-7-carboxamide] reads 100 to 1000 nM. The result for `COCCO[C@H]1CC[C@H](NC(=O)c2cc(-n3ccnc3)cc3cc(C)[nH]c23)CC1` [Example 9, 5-(1H-Imidazol-1-yl)-N-((1r,4r)-4-(2-methoxyethoxy)cyclohexyl)-2-methyl-1H-indole-7-carboxamide] reads 100 to 1000 nM. `COCCO[C@H]1CC[C@H](NC(=O)c2cc(-n3ccnc3)nc3cc[nH]c23)CC1` [Example 10, 5-(1H-imidazol-1-yl)-N-((1r,4r)-4-(2-methoxyethoxy)cyclohexyl)-1H-pyrrolo[3,2-b]pyridine-7-carboxamide] showed a half-maximal inhibitory concentration (IC50) of 10 to 100 nM. As to `Cc1cc2cc(-c3cncs3)cc(C(=O)NCc3c(F)cccc3C(F)(F)F)c2[nH]1` [Example 11, N-(2-Fluoro-6-(trifluoromethyl)benzyl)-2-methyl-5-(thiazol-5-yl)-1H-indole-7-carboxamide], the half-inhibitory concentration (IC50) lay in the range of 10 to 100 nM. As for `COCCO[C@H]1CC[C@H](NC(=O)c2nc(-n3ccnc3)cc3cc[nH]c23)CC1` [Example 12, 5-(1H-Imidazol-1-yl)-N-((1r,4r)-4-(2-methoxyethoxy)cyclohexyl)-1H-pyrrolo[2,3-c]pyridine-7-carboxamide], the figure is 10 to 100 nM; as for `COCCO[C@H]1CC[C@H](NC(=O)c2cc(-c3cncs3)cc3nc(C)[nH]c23)CC1` [Example 13, N-((1r,4r)-4-(2-Methoxyethoxy)cyclohexyl)-2-methyl-5-(thiazol-5-yl)-1H-benzo[d]imidazole-7-carboxamide], 100 to 1000 nM; as for `COCCO[C@H]1CC[C@H](NC(=O)c2nc(-n3ccnc3)nc3nc[nH]c23)CC1` [Example 14, 2-(1H-Imidazol-1-yl)-N-((1r,4r)-4-(2-methoxyethoxy)cyclohexyl)-7H-purine-6-carboxamide], 10 to 100 nM. The result for `O=C(NCc1c(F)cccc1C(F)(F)F)c1cc(-n2ccnc2)nc2cn[nH]c12` [Example 15, N-(2-Fluoro-6-(trifluoromethyl)benzyl)-5-(1H-imidazol-1-yl)-1H-pyrazolo[4,3-b]pyridine-7-carboxamide] reads 100 to 1000 nM. As for `COCCO[C@H]1CC[C@H](NC(=O)c2nc(-n3ccnc3)cc3cn[nH]c23)CC1` [Example 16, 5-(1H-Imidazol-1-yl)-N-((1r,4r)-4-(2-methoxyethoxy)cyclohexyl)-1H-pyrazolo[3,4-c]pyridine-7-carboxamide], the figure is 10 to 100 nM. Take `COCCO[C@H]1CC[C@H](NC(=O)c2cc(-c3cncs3)nc3cn[nH]c23)CC1` [Example 17, N-((1r,4r)-4-(2-Methoxyethoxy)cyclohexyl)-5-(thiazol-5-yl)-1H-pyrazolo[4,3-b]pyridine-7-carboxamide]: the IC50 is 100 to 1000 nM. The result for `COCCO[C@H]1CC[C@H](NC(=O)c2nc(-n3ccnc3)nc3ccsc23)CC1` [Example 18, 2-(1H-Imidazol-1-yl)-N-((1r,4r)-4-(2-methoxyethoxy)cyclohexyl)thieno[3,2-d]pyrimidine-4-carboxamide] reads 10 to 100 nM. The result for `COCCO[C@H]1CC[C@H](NC(=O)c2cc(-n3ccnc3)cc3cc(CN)[nH]c23)CC1` [Example 19, 2-(Aminomethyl)-5-(1H-imidazol-1-yl)-N-((1r,4r)-4-(2-methoxyethoxy)cyclohexyl)-1H-indole-7-carboxamide] reads 10 to 100 nM; that for `O=C(NCc1c(F)cccc1C(F)(F)F)c1nc(-c2cncs2)nc2ccsc12` [Example 20, N-(2-Fluoro-6-(trifluoromethyl)benzyl)-2-(thiazol-5-yl)thieno [3,2-d]pyrimidine-4-carboxamide], 100 to 1000 nM; that for `COCCO[C@H]1CC[C@H](NC(=O)c2nc(-c3cncs3)cc3cn[nH]c23)CC1` [Example 21, N-((1r,4r)-4-(2-Methoxyethoxy)cyclohexyl)-5-(thiazol-5-yl)-1H-pyrazolo[3,4-c]pyridine-7-carboxamide], 100 to 1000 nM.

`COCCO[C@H]1CC[C@H](NC(=O)c2nc(-n3ccnc3)nc3ccn(C)c23)CC1` [Example 22, 2-(1H-Imidazol-1-yl)-N-((1r,4r)-4-(2-methoxyethoxy)cyclohexyl)-5-methyl-5H-pyrrolo[3,2-d]pyrimidine-4-carboxamide] gave a concentration for half-maximal inhibition (IC50) of 10 to 100 nM. As for `COCCO[C@H]1CC[C@H](NC(=O)c2nc(-n3ccnc3)nc3cn[nH]c23)CC1` [Example 23, 5-(1H-Imidazol-1-yl)-N-((1r,4r)-4-(2-methoxyethoxy)cyclohexyl)-1H-pyrazolo[4,3-d]pyrimidine-7-carboxamide], the figure is 10 to 100 nM; as for `COCCO[C@H]1CC[C@H](NC(=O)c2cc(-n3ccnc3)nc3ccsc23)CC1` [Example 24, 5-(1H-Imidazol-1-yl)-N-((1r,4r)-4-(2-methoxyethoxy)cyclohexyl)thieno[3,2-b]pyridine-7-carboxamide], 10 to 100 nM. In turn, `COCCO[C@H]1CC[C@H](NC(=O)c2nc(-n3ccnc3)nc3ncsc23)CC1` [Example 25, 5-(1H-Imidazol-1-yl)-N-((1r,4r)-4-(2-methoxyethoxy)cyclohexyl)thiazolo[4,5-d]pyrimidine-7-carboxamide] yielded a half-maximal inhibitory concentration (IC50) of 100 to 1000 nM. The result for `COCCO[C@H]1CC[C@H](NC(=O)c2nc(-n3ccnc3)cc3nc[nH]c23)CC1` [Example 26, 6-(1H-Imidazol-1-yl)-N-((1r,4r)-4-(2-methoxyethoxy)cyclohexyl)-3H-imidazo[4,5-c]pyridine-4-carboxamide] reads 10 to 100 nM; that for `O=C(NC1CCCOC1)c1nc(-n2ccnc2)nc2cc[nH]c12` (stereo not shown) [Example 27, 2-(1H-Imidazol-1-yl)-N-(tetrahydro-2H-pyran-3-yl)-5H-pyrrolo[3,2-d]pyrimidine-4-carboxamide], less than 10 nM; that for `COCCO[C@H]1CC[C@H](NC(=O)c2cc(-n3ccnc3)c(F)c3cc[nH]c23)CC1` [Example 29, 4-Fluoro-5-(1H-imidazol-1-yl)-N-((1r,4r)-4-(2-methoxyethoxy)cyclohexyl)-1H-indole-7-carboxamide], 100 to 1000 nM. As for `COCCO[C@H]1CC[C@H](NC(=O)c2cc(-n3ccnc3)cc3nc(C)[nH]c23)CC1` [Example 30, 5-(1H-imidazol-1-yl)-N-((1r,4r)-4-(2-methoxyethoxy)cyclohexyl)-2-methyl-1H-benzo[d]imidazole-7-carboxamide], the figure is 100 to 1000 nM.
